In brackets after ≈: the same amount, converted by molar mass. Where two headings read alike, the source gives them in different places.
Experiments:
NF-κB = NF-κB inhibitory assay (luciferase, HEK293 with stable NF-κB expression, TNF-α stimulation); type: cell-based; details: read-out: NF-κB (IC50)
Method: HEK293 with a stable NF-κB expression cell line was used for the luciferase assay. Cells were maintained at 37 °C and 5% CO2 atmosphere in Dulbecco’s modified Eagle’s medium with 100 U/mL benzylpenicillin 100 μg/mL streptomycin, 2 mM glutamine, and 10% fetal bovine serum. Before seeding in 96-well plates, the cells were stained for 1 h in serum-free medium supplemented with […] cell Tracker Green CMFDA. Cells were seeded into 96-well plates and incubated for 24 h, and then treated with different concentrations of the tested compounds followed by stimulation with 20 ng/mL TNF-α. The luciferase substrate was added to each well after incubation for 6 h, and then the released luciferin signal was detected using an EnVision microplate reader. The IC50 value was derived from a nonlinear regression model (curve-fit), based on a sigmoidal dose response curve (variable slope) and computed using Graphpad Prism 5 (Graphpad Software). Bortezomib (PS-341, CAS No. 179324-69-7) was used as the positive control.

[1] = system: C. albicans SC5314 sensitive strain; assay: Anti-fungal susceptibility assay (CLSI M27-A3), sensitive strain; type: cell-based; details: Candida albicans, 48 h incubation at 37 °C
Method: An anti-fungal assay was carried out on the basis of the Clinical and Laboratory Standards Institute (CLSI) method M27-A3 [45, 48]. A single colony of Candida albicans (the resistant strain 901 or the sensitive strain 5314) was chosen from Sabouraud’s agar and then inoculated in yeast extract peptone dextrose medium (YEPD) for activation by shake bottled cultivation (200 rpm, 37 °C). After 16 h, fungi in the late-exponential growth phase were obtained, followed by being adjusted to 1 × 10^3–5 × 10^3 CFU/mL with RPMI 1640 medium. The density of the fungi in 96-well plates was 10^3 CFU/mL, while the final concentrations of the test compounds ranged from 64 to 0.125 μg/mL in triplicate. The assay volume in each well was 100 μL with MIC80 determined following 48 h incubation at 37 °C. Optical density was measured with a microplate reader (Multiskan MK3; Labsystems, Nantaa, Finland) at 630 nm. MIC80 was determined as the lowest concentration of the drugs that inhibited growth by 80% compared with the […]. Fluconazole was used as the positive control.

Row | MIC80 [1] [µg/mL] | Molecule | IC50 (NF-κB; Homo sapiens, HEK293, 6 h) [µM] | other results
1 |  | CC(C)C[C@H](NC(=O)[C@H](Cc1ccccc1)NC(=O)c1cnccn1)B(O)O [PS-341, Bortezomib, reference compound] |  | IC50 (NF-κB; Homo sapiens, HEK293 NF-κB luciferase, 20 ng/mL TNF-α, 6 h, mean SEM of triplicated experiments): 0.44 ± 0.08 µM
2 |  | CC(C)(O)/C=C/C(=O)[C@](C)(O)[C@H]1[C@H](O)C[C@@]2(C)[C@@H]3CC=C4[C@@H](CC(=O)[C@@H](O)C4(C)C)[C@]3(C)C(=O)C[C@]12C [Compound 17, 3α,16α,20(R),25-tetrahydroxy-cucurbita-5,23-dien-2,11,22-trione] | 1.6 ± 0.32 | 
3 | 32 (≈ 65.5 µM) | CC1(C)CC[C@]2(C(=O)O)CC[C@]3(C)C(=CC[C@@H]4[C@@]5(C)C[C@@H](O)[C@@H](O)[C@@](C)(CO)[C@@H]5CC[C@]43C)[C@@H]2C1 [Compound 12] |  | 
4 | 0.125 (≈ 0.408 µM) | OC(Cn1cncn1)(Cn1cncn1)c1ccc(F)cc1F [Fluconazole, reference compound] |  | 
5 |  | CC(C)(O)/C=C/C(=O)[C@](C)(O)[C@H]1[C@H](O)C[C@@]2(C)[C@@H]3CC=C4[C@@H](C[C@H](O)C(=O)C4(C)C)[C@]3(C)C(=O)C[C@]12C [Compound 16, cucurbitacin D] | 0.61 ± 0.12 | 
6 |  | cucurbitacin B [Compound 15] |  | IC50 (NF-κB; HEK293 NF-κB luciferase, 20 ng/mL TNF-α, 6 h, mean SEM of triplicated experiments): 0.08 ± 0.03 µM

Source: PMC8037097, “Highly Oxygenated Triterpenoids and Diterpenoids from Fructus Rubi (Rubus chingii Hu) and Their NF-kappa B Inhibitory Effects” (Molecules, 2021)
